In general, pKa refers to the negative logarithm of the acid dissociation constant.

Series [1] is described as follows: Solubility/miscibility tests. The class given is physicochemical. As to the method: Approximately 5-10 mg of compound was added to a test tube followed by the addition of 1.5 mL of solvent followed by 5 seconds of gentle stirring. If dissolution was not observed immediately, the mixture was further stirred and sonicated for 30 seconds. Material was deemed soluble if the resulting solution was free of particulate and haze, determined by visual inspection. […] If solutions remained hazy, they were referred to as emulsion mixtures.

Series [2] in a line: Thermal degradation by thermal gravimetric analysis (TGA). The series is classed as physicochemical. The settings on record: 10° C./min, nitrogen. The procedure:
Nuclear Magnetic Resonance (NMR) spectroscopy was conducted on a Varian INOVA 400 MHz spectrometer (^1H, 400.09 MHz, ^31P{^1H} 161.82 MHz, ^19F, 376.15 MHz). All ^1H spectra were referenced relative to tetramethyl silane (CDCl3; ^1H δH=7.26 ppm and CO(CD3)2; ^1H δH=2.04). The chemical shifts for ^31P{H} NMR spectroscopy were referenced using an external standard (85% H3PO4; δP=0). The chemical shifts for ^19F{^1H} NMR spectroscopy were also referenced using an external standard (trifluorotoluene; δF=−63.9 ppm). Infrared spectra were recorded using a Bruker Tensor 27 spectrometer using attenuated total reflectance mode (ATR) using a ZnSe crystal. […] Water contact angles (WCA) were measured using a Kruss DSA100 Drop Shape Analyzer and analyzed using Drop Shape Analysis. Thermal degradation was determined using Thermal Gravimetric Analysis (TGA) on a Q600 SDT TA instrument. […] Glass transition temperatures were determined using Differential Scanning calorimetry (DSC) on a DSC Q20 TA instrument. […] Melting points of all HFPS were determined using a Gallenkamp Variable Heater in air. Mass spectrometry was recorded in both positive and negative ion modes using electrospray ionization (ESI) Micromass LCT spectrometer. […] The positive or negative secondary ions were extracted from the sample surface, mass separated and detected via a reflectron-type time-of-flight analyser. […]

The nature of series [3]: Slow heating within a mass spectrometer, perfluoro-tert-butanol fragment m/z 197 monitored. The series is classed as physicochemical. The settings on record: heated slowly within a mass spectrometer. From the text:
Compound [3b]Cl was heated slowly within a mass spectrometer and the fragments of perfluoro-tert-butanol was monitored.

For series [4] the following is noted: of the protonated form; cited from earlier work.
For the next series, the system named is Escherichia coli. As to the kind of experiment: Antibacterial drop-test of UV-cured films. The series is classed as cell-based. The procedure: (§1) A desired amount of 2-hydrox-2-methy-1-phenyl-propanone (5 wt %), diacrylate crosslinker (EB 130, a cyclic aliphatic diacrylate) and the acrylate-appended phosphonium salt were weighed and combined in screw top vials. The mixture was then insonated at 45° C. for 20 min until the solutions were free of particulate and haze. After cooling to room temperature, the solutions were cast on polyester films and irradiated with UV light three times. Leached films were treated with H2O (Milli-Q) in a wrist action shaker for 4 hours, followed by washing with H2O (2×10 mL) and air drying. Both leached and unleached films were subjected to the antibacterial test (below).
(§2) The antibacterial activities of the charged surfaces against Gram-negative bacteria Escherichia coli […] were studied using the antibacterial drop-test. E. coli precultured in 15 mL of nutrient broth (Difco™ BD) at 37° C. for 24 h, was washed by centrifuging at 4000 rpm for 10 min. After removing the supernatant, the cells were washed with phosphate buffered saline (PBS) twice and re-suspended and diluted to approximately 10^6 colony forming units (CFU)/mL in PBS solution. The samples were placed in sterilized Petri dishes. 100 μL of PBS solution with bacteria was added dropwise onto sterilized surfaces until completely covered. The petri dishes were sealed and placed in an incubator at 37° C. with the humidity 46%. After 4 hr, the bacteria were washed from the surface of the sample by using 10 mL PBS in the sterilized Petri dish. From this solution, 100 μL was spread onto solid plate count agar (Difco™ BD). After incubation for 24 h at 37° C., the number of surviving bacterial colonies on the Petri dishes were counted. The results after multiplication with the dilution factor were expressed as CFU per mL. The above experiments were carried out in triplicate for each sample. The percentage of killed bacteria was calculated as [(CFU of initial bacterial suspension−CFUs following surface contact)/CFU of initial bacterial suspension]×100.

The subject of a further series is S. Aureus. As to the kind of experiment: Antibacterial drop-test of UV-cured films. The series is classed as cell-based. The procedure:
as §1, §2

Series [5] can be described thus: Density of surface phosphonium cations by UV-vis (fluorescein dye). The class given is physicochemical. The procedure: Characterization by FTIR-ATR spectroscopy confirmed the conversion of acrylate functionality post polymerization. Percent cure was determined using a literature procedure. The intensity of the acrylate vibration at 810 cm^−1 was compared to the C═O vibration at 1750 cm^−1 both before and after irradiation. […] The density of surface phosphonium cations was determined by UV-vis spectroscopy as described in a literature procedure.
Characterization by FTIR-ATR spectroscopy confirmed the conversion of acrylate functionality post polymerization. […] The density of surface phosphonium cations was determined by UV-vis spectroscopy as described in a literature procedure^23. […] This assumes a 1:1 ratio of positive and negative charge on the surface.
Before deposition of [Au25L18]^−, the number of accessible charges on the PPF was quantified. A known protocol utilizing fluorescein dye was employed to determine the value for the above system and to relate this quantity back to the percentage of phosphonium monomers that were included in the original formulation.^23 This procedure is commonly used as a characterization technique for films containing surface-bound quaternary salts. […] At 30 wt %, a dramatic increase in the number of quaternary charges was observed (1.5×10^15 cations/cm^2). Increasing the salt content to 37.5 and 47.5 wt % yielded surfaces with 8.2×10^15 and 1.4×10^16 cations/cm^2, respectively. […] Use of low melting phosphonium salts permits formation of a formulation having low viscosity despite the high ion content, allowing for ease of handling and deposition. Use of high melting point organic salts in a similar fashion generates formulations with relatively high viscosities or significant solubility issues, which manifest themselves in poor films. Advantages of the phosphonium-based acrylate monomer in the fabrication of the charged surfaces can thus be seen.

“And” between values parts separate entries of the source, which are not always exact repeats. Identical values can stand only once.

Take `C=Cc1ccc(C[P+](CCCOC(C(F)(F)F)(C(F)(F)F)C(F)(F)F)(CCCOC(C(F)(F)F)(C(F)(F)F)C(F)(F)F)CCCOC(C(F)(F)F)(C(F)(F)F)C(F)(F)F)cc1.[Cl-]` [[3b]Cl]: the figures for the “Solubility (in words)” value in series [1] (chloroform), in series [1] (dichloromethane) and in series [1] (most solvents including diethyl ether) were “soluble”, “soluble” and “high solubility”, respectively. For the same molecule, in series [2], the “Decomposition Point” value was 198 °C and 197* ° C. Also, the “Time at which signal at m/z=197 was at a maximum” value in series [3] worked out at 889 s. Moreover, the “Time until fragment at m/z=197 was observed” value in series [3] was found to be 532 s.

`OC(C(F)(F)F)(C(F)(F)F)C(F)(F)F` [perfluoro-tert-butoxide]: in series [4], the pKa is listed as 5.2.

For the molecule `C=CC(=O)OCCC[P+](CCCC)(CCCC)CCCC.[Br-]` [[4]Br, (3-(acryloyloxy)propyl)tributylphosphonium bromide], the “% E. coli killed (unleached)” value is recorded as “No” in the series with Escherichia coli (25% [4]Br in EB 130 film), 30 ± 5% with Escherichia coli (30% [4]Br in EB 130 film), 46 ± 7% in the series with Escherichia coli (37.5% [4]Br in EB 130 film) and 82 ± 9% with Escherichia coli (47.5% [4]Br in EB 130 film). Moreover, the “% S. Aureus killed (unleached)” value in the series on S. Aureus (30% [4]Br in EB 130 film) and in the series with S. Aureus (47.5% [4]Br in EB 130 film) was 100 ± 2% throughout. Moreover, the “% S. Aureus killed (leached)” value in the series on S. Aureus (47.5% [4]Br in EB 130 film, leached) is 100 ± 2%. For the same molecule, the Charge/Unit area was 0 ×10^x Y^+/cm^2 in series [5] (25% [4]Br film), 1.47 × 10^15 ×10^x Y^+/cm^2 in series [5] (30% [4]Br film), 8.18 × 10^15 ×10^x Y^+/cm^2 in series [5] (37.5% [4]Br film) and 1.42 × 10^16 ×10^x Y^+/cm^2 in series [5] (47.5% [4]Br film).

(Values after patent US9481743B2, “Polyelectrolyte polymers, their manufacture and use” (priority 2013, dated 2016).)
